# Source: PubChem BioAssay (NCI)
#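 How tested: cells in 96-well plates exposed to compound for 48 hours at five concentrations. Abbreviation: GI50, concentration required for 50% inhibition of growth. TGI marks complete inhibition of growth.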
# Assays:
# Assay in all cases: NCI-60 cell line screen, 48 h
# [1] = tested on: OVCAR-3 ovarian
# [2] = tested on: HOP-62 NSCLC
# [3] = tested on: LOX IMVI melanoma
# [4] = tested on: K-562 leukemia
# [5] = tested on: SNB-78 CNS
# [6] = tested on: SN12C renal
# [7] = tested on: SK-MEL-2 melanoma
# [8] = tested on: ACHN renal
# [9] = tested on: KM12 colon
# [10] = tested on: IGROV1 ovarian
# [11] = tested on: 786-0 renal
# [12] = tested on: M19-MEL melanoma
# [13] = tested on: OVCAR-4 ovarian
# [14] = tested on: SF-295 CNS
# [15] = tested on: LXFL 529 NSCLC
# [16] = tested on: CAKI-1 renal
# [17] = tested on: HOP-92 NSCLC
# [18] = tested on: OVCAR-8 ovarian
# [19] = tested on: MALME-3M melanoma
# [20] = tested on: SK-MEL-5 melanoma
# [21] = tested on: A549 NSCLC
# [22] = tested on: DMS 114 small cell lung
# [23] = tested on: SK-MEL-28 melanoma
# [24] = tested on: UACC-62 melanoma
# [25] = tested on: NCI-H23 lung
# [26] = tested on: U251 CNS
# [27] = tested on: RXF-631 renal
# [28] = tested on: EKVX NSCLC
# [29] = tested on: HOP-18 NSCLC
# [30] = tested on: DLD-1 colon
# [31] = tested on: TK-10 renal
# [32] = tested on: SW-620 colon
# [33] = tested on: SF-539 CNS
# [34] = tested on: NCI-H226 lung
# [35] = tested on: SK-OV-3 ovarian
# [36] = tested on: OVCAR-5 ovarian
# [37] = tested on: HCC-2998 colon
# [38] = tested on: HCT-116 colon
# [39] = tested on: KM20L2 colon
# [40] = tested on: SNB-75 CNS
# [41] = tested on: UACC-257 melanoma
# [42] = tested on: HCT-15 colon
# [43] = tested on: NCI-H522 lung
# [44] = tested on: MOLT-4 leukemia
# [45] = tested on: HT29 colon
# [46] = tested on: NCI-H460 lung
# [47] = tested on: M14 melanoma
# [48] = tested on: UO-31 renal
# [49] = tested on: SF-268 CNS
# [50] = tested on: CCRF-CEM leukemia
# [51] = tested on: A498 renal
# [52] = tested on: DMS 273 small cell lung
# [53] = tested on: RPMI-8226 leukemia
# [54] = tested on: HL-60(TB) leukemia
# [55] = tested on: COLO 205 colon
# [56] = tested on: RXF 393 renal
# [57] = tested on: SNB-19 CNS
# [58] = tested on: SR leukemia
structure (smiles),measurement,setting,value
COc1c(C)c(O)c2c(=O)cc(-c3ccccc3)oc2c1C,TGI,[1],> 100 µM
same,TGI,[2],> 100 µM
same,TGI,[3],> 100 µM
same,TGI,[4],> 100 µM
same,TGI,[5],> 100 µM
same,TGI,[6],> 100 µM
same,TGI,[7],> 100 µM
same,TGI,[8],> 100 µM
same,TGI,[9],> 100 µM
same,TGI,[10],> 100 µM
same,TGI,[11],> 100 µM
same,TGI,[12],> 100 µM
same,TGI,[13],> 100 µM
same,TGI,[14],> 100 µM
same,TGI,[15],> 100 µM
same,TGI,[16],> 100 µM
same,TGI,[17],> 100 µM
same,TGI,[18],> 100 µM
same,TGI,[19],> 100 µM
same,TGI,[20],> 100 µM
same,TGI,[21],> 100 µM
same,TGI,[22],> 100 µM
same,TGI,[23],> 100 µM
same,TGI,[24],> 100 µM
same,TGI,[25],> 100 µM
same,TGI,[26],> 100 µM
same,TGI,[27],> 100 µM
same,TGI,[28],> 100 µM
same,TGI,[29],> 100 µM
same,TGI,[30],> 100 µM
same,TGI,[31],> 100 µM
same,TGI,[32],> 100 µM
same,TGI,[33],> 100 µM
same,TGI,[34],> 100 µM
same,TGI,[35],> 100 µM
same,TGI,[36],> 100 µM
same,TGI,[37],> 100 µM
same,TGI,[38],> 100 µM
same,TGI,[39],> 100 µM
same,TGI,[40],> 100 µM
same,TGI,[41],> 100 µM
same,TGI,[42],> 100 µM
same,TGI,[43],> 100 µM
same,TGI,[44],> 100 µM
same,TGI,[45],> 100 µM
same,TGI,[46],> 100 µM
same,TGI,[47],> 100 µM
same,TGI,[48],> 100 µM
same,TGI,[49],> 100 µM
same,TGI,[50],> 100 µM
same,TGI,[51],> 100 µM
Cc1cc(=O)oc2cc(OCc3nc4ccccc4c(=O)n3-c3ccccc3)ccc12,TGI,[1],> 100 µM
same,TGI,[2],> 100 µM
same,TGI,[3],> 100 µM
same,TGI,[4],> 100 µM
same,TGI,[52],> 100 µM
same,TGI,[6],> 100 µM
same,TGI,[7],> 100 µM
same,TGI,[8],> 100 µM
same,TGI,[53],> 100 µM
same,TGI,[9],> 100 µM
same,TGI,[10],> 100 µM
same,TGI,[11],> 100 µM
same,TGI,[12],> 100 µM
same,TGI,[13],> 100 µM
same,TGI,[14],> 100 µM
same,TGI,[15],> 100 µM
same,TGI,[16],> 100 µM
same,TGI,[17],96.4 µM
same,TGI,[18],> 100 µM
same,TGI,[19],> 100 µM
same,TGI,[20],> 100 µM
same,TGI,[21],> 100 µM
same,TGI,[22],> 100 µM
same,TGI,[23],> 100 µM
same,TGI,[54],> 100 µM
same,TGI,[24],> 100 µM
same,TGI,[25],> 100 µM
same,TGI,[26],> 100 µM
same,TGI,[55],> 100 µM
same,TGI,[27],> 100 µM
same,TGI,[28],> 100 µM
same,TGI,[29],> 100 µM
same,TGI,[30],> 100 µM
same,TGI,[31],> 100 µM
same,TGI,[32],> 100 µM
same,TGI,[33],> 100 µM
same,TGI,[34],> 100 µM
same,TGI,[35],> 100 µM
same,TGI,[56],> 100 µM
same,TGI,[36],> 100 µM
same,TGI,[37],> 100 µM
same,TGI,[38],> 100 µM
same,TGI,[39],> 100 µM
same,TGI,[40],46.7 µM
same,TGI,[42],> 100 µM
same,TGI,[43],> 100 µM
same,TGI,[44],> 100 µM
same,TGI,[45],> 100 µM
same,TGI,[46],> 100 µM
same,TGI,[57],97.7 µM
same,TGI,[47],> 100 µM
same,TGI,[49],> 100 µM
same,TGI,[50],> 100 µM
same,TGI,[51],> 100 µM
CCCCCCCCOCC(CO)OCCCCCCCC (stereo unspecified),TGI,[1],34.2 µM
same,TGI,[2],37.2 µM
same,TGI,[3],32 µM
same,TGI,[4],32.4 µM
same,TGI,[52],33.4 µM
same,TGI,[6],31.8 µM
same,TGI,[8],31.8 µM
same,TGI,[53],42.5 µM
same,TGI,[10],40.8 µM
same,TGI,[11],33.9 µM
same,TGI,[12],36.3 µM
same,TGI,[13],34.7 µM
same,TGI,[14],30.5 µM
same,TGI,[15],33.1 µM
same,TGI,[16],> 100 µM
same,TGI,[17],49.2 µM
same,TGI,[18],37.7 µM
same,TGI,[19],34.9 µM
same,TGI,[20],33.8 µM
same,TGI,[21],37.2 µM
same,TGI,[22],42.3 µM
same,TGI,[23],34.2 µM
same,TGI,[54],34.1 µM
same,TGI,[24],43.3 µM
same,TGI,[25],33 µM
same,TGI,[26],32.3 µM
same,TGI,[55],39.7 µM
same,TGI,[27],32 µM
same,TGI,[29],24.5 µM
same,TGI,[30],33.1 µM
same,TGI,[31],34.4 µM
same,TGI,[32],37.4 µM
same,TGI,[34],44.9 µM
same,TGI,[35],> 100 µM
same,TGI,[36],32.7 µM
same,TGI,[37],33.6 µM
same,TGI,[38],33.6 µM
same,TGI,[41],37.1 µM
same,TGI,[42],29.7 µM
same,TGI,[44],37.9 µM
same,TGI,[45],36.6 µM
same,TGI,[46],30 µM
same,TGI,[57],41.8 µM
same,TGI,[47],67.1 µM
same,TGI,[48],35.9 µM
same,TGI,[49],29.7 µM
same,TGI,[50],42.5 µM
same,TGI,[51],42 µM
CCC[CH2][Sn]1([CH2]CCC)[O]C(=O)c2cccc(C)c2[O]1,GI50,[1],1.11 µM
same,TGI,[1],2.32 µM
same,GI50,[2],2.34 µM
same,TGI,[2],4.16 µM
same,GI50,[3],0.21 µM
same,TGI,[3],0.448 µM
same,GI50,[4],0.259 µM
same,TGI,[4],0.897 µM
same,GI50,[6],0.598 µM
same,TGI,[6],1.84 µM
same,GI50,[8],0.551 µM
same,TGI,[8],1.74 µM
same,GI50,[53],0.25 µM
same,TGI,[53],0.81 µM
same,GI50,[9],1.08 µM
same,TGI,[9],2.36 µM
same,GI50,[10],1.35 µM
same,TGI,[10],2.72 µM
same,GI50,[11],1.07 µM
same,TGI,[11],2.26 µM
same,GI50,[12],0.477 µM
same,TGI,[12],1.69 µM
same,GI50,[13],1.33 µM
same,TGI,[13],2.61 µM
same,GI50,[14],1.56 µM
same,TGI,[14],2.99 µM
same,GI50,[15],0.141 µM
same,TGI,[15],0.44 µM
same,GI50,[16],0.258 µM
same,TGI,[16],0.852 µM
same,GI50,[17],1.28 µM
same,TGI,[17],2.58 µM
same,GI50,[18],1.04 µM
same,TGI,[18],2.38 µM
same,GI50,[19],0.441 µM
same,TGI,[19],1.55 µM
same,GI50,[20],1.09 µM
same,TGI,[20],2.33 µM
same,GI50,[21],1.46 µM
same,TGI,[21],2.79 µM
same,GI50,[22],0.231 µM
same,TGI,[22],0.565 µM
same,GI50,[23],0.454 µM
same,TGI,[23],1.51 µM
same,GI50,[54],0.297 µM
same,TGI,[54],1.37 µM
same,GI50,[24],0.581 µM
same,TGI,[24],1.82 µM
same,GI50,[25],0.649 µM
same,TGI,[25],1.98 µM
same,GI50,[26],0.421 µM
same,TGI,[26],1.44 µM
same,GI50,[55],0.188 µM
same,TGI,[55],1.54 µM
same,GI50,[27],0.24 µM
same,TGI,[27],0.535 µM
same,GI50,[28],1.42 µM
same,TGI,[28],2.77 µM
same,GI50,[29],1.08 µM
same,TGI,[29],2.27 µM
same,GI50,[30],0.722 µM
same,TGI,[30],2.05 µM
same,GI50,[31],0.356 µM
same,TGI,[31],0.911 µM
same,GI50,[32],0.2 µM
same,TGI,[32],0.548 µM
same,GI50,[33],0.66 µM
same,TGI,[33],1.91 µM
same,GI50,[35],1.88 µM
same,TGI,[35],3.4 µM
same,GI50,[56],0.29 µM
same,TGI,[56],1.02 µM
same,GI50,[36],1.78 µM
same,TGI,[36],3.16 µM
same,GI50,[58],0.401 µM
same,TGI,[58],1.82 µM
same,GI50,[37],1.27 µM
same,TGI,[37],2.6 µM
same,GI50,[38],1.25 µM
same,TGI,[38],2.5 µM
same,GI50,[39],1.35 µM
same,TGI,[39],2.64 µM
same,GI50,[40],0.239 µM
same,TGI,[40],0.766 µM
same,GI50,[41],0.626 µM
same,TGI,[41],1.95 µM
same,GI50,[42],0.592 µM
same,TGI,[42],2.7 µM
same,GI50,[43],0.119 µM
same,TGI,[43],0.25 µM
same,GI50,[44],0.218 µM
same,TGI,[44],0.699 µM
same,GI50,[45],1.5 µM
same,TGI,[45],2.97 µM
same,GI50,[46],2.48 µM
same,TGI,[46],5.75 µM
same,GI50,[57],0.363 µM
same,TGI,[57],1.36 µM
same,GI50,[47],0.577 µM
same,TGI,[47],1.88 µM
same,GI50,[48],1.03 µM
same,TGI,[48],2.22 µM
same,GI50,[49],0.349 µM
same,TGI,[49],1.46 µM
same,GI50,[50],0.26 µM
same,TGI,[50],0.924 µM
same,GI50,[51],0.317 µM
same,TGI,[51],0.867 µM
